Legend:
Type in all cases: in vivo
Cyperus iria = assay: Post-emergence test experiment (greenhouse pot, spray at 2-3 leaf stage); details: post-emergence, after 3 weeks, resistant to ALS inhibitor herbicides
How it was run: (§1)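 Activity graded levels 0-5 by fresh-weight inhibition (level 5 above 85%, level 0 below 5%), assessed 3 weeks after treatment. Plants grown in greenhouse pots were sprayed post-emergence at 2-3 leaves using acetone/tween-80 solutions with methyl oleate synergist (1.5 L/ha).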

Echinochloa crusgalli = assay: as above; details: for Echinochloa crusgalli, activity level (growth inhibition rate): post-emergence, after 3 weeks, resistant to ALS inhibitor herbicides; for Activity level (growth inhibition rate) Echinochloa crusgalli: 1000 g/ha, post-emergence spray at 2-3 leaf stage, assessed after 3 weeks, fresh weight inhibition rate
How it was run: as §1

Indica rice = assay: as above; details: post-emergence, after 3 weeks
How it was run: as §1

Japonica rice = assay: as above; details: post-emergence, after 3 weeks
How it was run: as §1

Abutilon theophrasti = assay: as above; details: 1000 g/ha; post-emergence spray at 2-3 leaf stage; assessed after 3 weeks; fresh weight inhibition rate
How it was run: as §1

Digitaria sanguinalis = assay: as above; details: 1000 g/ha; post-emergence spray at 2-3 leaf stage; assessed after 3 weeks; fresh weight inhibition rate
How it was run: as §1

Galium spurium = assay: as above; details: 1000 g/ha; post-emergence spray at 2-3 leaf stage; assessed after 3 weeks; fresh weight inhibition rate
How it was run: as §1

Monochoria vaginalis [1] = assay: as above; details: 1000 g/ha; post-emergence spray at 2-3 leaf stage; assessed after 3 weeks; fresh weight inhibition rate
How it was run: as §1

rice (japonica rice) = assay: Transplanted rice safety evaluation in rice field soil pot; details: 1000 g/ha, 21 days after treatment
Source text: (§2) The activity level standard of harmful plants destruction (i. e. growth inhibition rate) is as follows: • Level 5: the growth inhibition rate is greater than 85%; • Level 4: the growth inhibition rate is equal to or greater than 60% and less than 85%; • Level 3: the growth inhibition rate is equal to or greater than 40% and less than 60%; • Level 2: the growth inhibition rate is equal to or greater than 20% and less than 40%; • Level 1: the growth inhibition rate is equal to or greater than 5% and less than 20%; • Level 0: the growth inhibition rate is less than 5%;
(§3) Transplanted rice safety evaluation and weed control effect evaluation in rice field:
In addition, the rice field soil that loaded into the 1/1,000,000 ha pot was leveled to keep water storage at 3-4 cm depth. The 3-leaf stage rice (japonica rice) was transplanted at 3 cm of transplanting depth the next day. The compound of the present invention was treated by the same way after 5 days of transplantation.
(§4) The fertility condition of Monochoria vaginalis 14 days and rice 21 days after the treatment of the compound of the invention with the naked eye.

Monochoria vaginalis [2] = assay: Weed control effect evaluation in rice field soil pot; details: paddy pot, 14 days after treatment, resistant to pyrazosulfuron-ethyl and penoxsulam
Source text: as §2, §3
Rice field soil was loaded into a 1/1,000,000 ha pot. The seeds of Monochoria vaginalis were sowed and gently covered with soil, then left to stand still in greenhouse in the state of 0.5-1 cm of water storage. It was kept at 3-4 cm of water storage thereafter. The weeds were treated by dripping the WP or SC water diluents prepared according to the common preparation method of the compounds of the present invention with pipette homogeneously to achieve specified effective amount when Monochoria vaginalis reached 0.5 leaf stage.
as §4

SMILES | Cyperus iria, activity level (growth inhibition rate) (Cyperus iria; 100 g/ha) | Echinochloa crusgalli, activity level (growth inhibition rate) (Echinochloa crusgalli; 100 g/ha) | Indica rice, activity level (growth inhibition rate) (Indica rice; 100 g/ha) | Japonica rice, activity level (growth inhibition rate) (Japonica rice; 100 g/ha) | Activity level (growth inhibition rate) Abutilon theophrasti (Abutilon theophrasti) | Cyperus iria, activity level (growth inhibition rate) (Cyperus iria; 600 g/ha, from Hunan) | Activity level (growth inhibition rate) Digitaria sanguinalis (Digitaria sanguinalis) | Activity level (growth inhibition rate) Echinochloa crusgalli (Echinochloa crusgalli) | Echinochloa crusgalli, activity level (growth inhibition rate) (Echinochloa crusgalli; 600 g/ha, from Hunan) | Activity level (growth inhibition rate) Galium spurium (Galium spurium) | Indica rice, activity level (growth inhibition rate) (Indica rice; 600 g/ha) | Japonica rice, activity level (growth inhibition rate) (Japonica rice; 600 g/ha) | Activity level (growth inhibition rate) Monochoria Vaginalis (Monochoria vaginalis [1]) | Rice, safety level (rice (japonica rice)) | Monochoria Vaginalis, activity level (Monochoria vaginalis [2]; 1000 g/ha) | Monochoria Vaginalis, activity level (Monochoria vaginalis [2]; 50 g/ha)
COc1cc(OC)nc(Oc2cccc(Oc3nc(OC)cc(OC)n3)c2C(=O)O)n1 [Bispyribac-sodium, reference compound] | 2 (Level 2: the growth inhibition rate is equal to or greater than 20% and less than 40%) | 1 (Level 1: the growth inhibition rate is equal to or greater than 5% and less than 20%) | 2 (Level 2: the growth inhibition rate is equal to or greater than 20% and less than 40%) | 4 (Level 4: the growth inhibition rate is equal to or greater than 60% and less than 85%) | – | – | – | – | – | – | – | – | – | – | – | –
Cc1c(F)nc(OC(C)C(=O)OCc2ccccc2)c(C)c1N (centres unmarked) [Compound 7] | – | – | – | – | 5 (Level 5: the growth inhibition rate is greater than 85%) | 5 (Level 5: the growth inhibition rate is greater than 85%) | 5 (Level 5: the growth inhibition rate is greater than 85%) | 5 (Level 5: the growth inhibition rate is greater than 85%) | 5 (Level 5: the growth inhibition rate is greater than 85%) | 5 (Level 5: the growth inhibition rate is greater than 85%) | 0 (Level 0: the growth inhibition rate is less than 5%) | 0 (Level 0: the growth inhibition rate is less than 5%) | 5 (Level 5: the growth inhibition rate is greater than 85%) | 0 (Level 0: the growth inhibition rate is less than 5%) | 5 (Level 5: the growth inhibition rate is greater than 85%) | –
CC(Oc1nc(F)c(Br)c(N)c1Br)C(=O)SCc1ccccc1 (centres unmarked) [Compound 12] | – | – | – | – | 5 (Level 5: the growth inhibition rate is greater than 85%) | 5 (Level 5: the growth inhibition rate is greater than 85%) | 5 (Level 5: the growth inhibition rate is greater than 85%) | 5 (Level 5: the growth inhibition rate is greater than 85%) | 5 (Level 5: the growth inhibition rate is greater than 85%) | 5 (Level 5: the growth inhibition rate is greater than 85%) | 0 (Level 0: the growth inhibition rate is less than 5%) | 0 (Level 0: the growth inhibition rate is less than 5%) | 5 (Level 5: the growth inhibition rate is greater than 85%) | 0 (Level 0: the growth inhibition rate is less than 5%) | 5 (Level 5: the growth inhibition rate is greater than 85%) | –
Cc1c(OC(C)C(=O)OCc2ccccc2)nc(F)c(Cl)c1N (centres unmarked) [Compound 20] | – | – | – | – | 5 (Level 5: the growth inhibition rate is greater than 85%) | 5 (Level 5: the growth inhibition rate is greater than 85%) | 5 (Level 5: the growth inhibition rate is greater than 85%) | 5 (Level 5: the growth inhibition rate is greater than 85%) | 5 (Level 5: the growth inhibition rate is greater than 85%) | 5 (Level 5: the growth inhibition rate is greater than 85%) | 0 (Level 0: the growth inhibition rate is less than 5%) | 0 (Level 0: the growth inhibition rate is less than 5%) | 5 (Level 5: the growth inhibition rate is greater than 85%) | 0 (Level 0: the growth inhibition rate is less than 5%) | 5 (Level 5: the growth inhibition rate is greater than 85%) | –
CC(Oc1nc(F)c(Cl)c(N)c1Cl)C(=O)SCc1ccccc1 (centres unmarked) [Compound 67] | – | – | – | – | 5 (Level 5: the growth inhibition rate is greater than 85%) | 5 (Level 5: the growth inhibition rate is greater than 85%) | 5 (Level 5: the growth inhibition rate is greater than 85%) | 5 (Level 5: the growth inhibition rate is greater than 85%) | 5 (Level 5: the growth inhibition rate is greater than 85%) | 5 (Level 5: the growth inhibition rate is greater than 85%) | 0 (Level 0: the growth inhibition rate is less than 5%) | 0 (Level 0: the growth inhibition rate is less than 5%) | 5 (Level 5: the growth inhibition rate is greater than 85%) | 0 (Level 0: the growth inhibition rate is less than 5%) | 5 (Level 5: the growth inhibition rate is greater than 85%) | –
CC(Oc1nc(F)c(Cl)c(N)c1Cl)C(=O)OCc1ccccc1F (centres unmarked) [Compound 75] | – | – | – | – | 5 (Level 5: the growth inhibition rate is greater than 85%) | 5 (Level 5: the growth inhibition rate is greater than 85%) | 5 (Level 5: the growth inhibition rate is greater than 85%) | 5 (Level 5: the growth inhibition rate is greater than 85%) | 5 (Level 5: the growth inhibition rate is greater than 85%) | 5 (Level 5: the growth inhibition rate is greater than 85%) | 0 (Level 0: the growth inhibition rate is less than 5%) | 0 (Level 0: the growth inhibition rate is less than 5%) | 5 (Level 5: the growth inhibition rate is greater than 85%) | 0 (Level 0: the growth inhibition rate is less than 5%) | 5 (Level 5: the growth inhibition rate is greater than 85%) | –
CC(Oc1nc(F)c(Cl)c(N)c1Cl)C(=O)SCc1cccc(Cl)c1 (centres unmarked) [Compound 76] | – | – | – | – | 5 (Level 5: the growth inhibition rate is greater than 85%) | 5 (Level 5: the growth inhibition rate is greater than 85%) | 5 (Level 5: the growth inhibition rate is greater than 85%) | 5 (Level 5: the growth inhibition rate is greater than 85%) | 5 (Level 5: the growth inhibition rate is greater than 85%) | 5 (Level 5: the growth inhibition rate is greater than 85%) | 0 (Level 0: the growth inhibition rate is less than 5%) | 0 (Level 0: the growth inhibition rate is less than 5%) | 5 (Level 5: the growth inhibition rate is greater than 85%) | 0 (Level 0: the growth inhibition rate is less than 5%) | 5 (Level 5: the growth inhibition rate is greater than 85%) | –
COc1cnc(OC)n2nc(NS(=O)(=O)c3c(OCC(F)F)cccc3C(F)(F)F)nc12 [Penoxsulam, reference compound] | – | – | – | – | – | – | – | – | – | – | – | – | – | – | – | 1 (Level 1: the growth inhibition rate is equal to or greater than 5% and less than 20%)
